Several values for one entry are separate records, joined by “and”; a condition that tells them apart may be missing. Identical values can stand only once. Like-named read-outs stand apart in the source and are kept apart here. No end group written: not given here.
Tests used:
Mcl-1 [1] = target: T1, Mcl-1 (Homo sapiens, UniProt Q07820); conditions: read-out: Binder class, Mcl-1; S1 Bim variants, specific binding measured using yeast display; ref Dutta et al. (2010); cited from earlier work
T1 construct: myc-Mcl-1 SPOT array & FP; made in house
From the text: Negative control mutatio ...

Bcl-xL [2] = target: T2, Bcl-xL (Homo sapiens, UniProt Q07817); conditions: S1 Bim variants, specific binding measured using yeast display; ref Dutta et al. (2010); cited from earlier work
T2 construct: myc-Bcl-xL SPOT array & FP; made in house

Mcl-1 [3] = target: T1, Mcl-1; assay: Fluorescence polarization direct binding
Method: (§1) Peptides were purified by reverse-phase HPLC using a C18 column and a linear water/acetonitrile gradient. We re-analyzed the purified peptide by mass spectrometry if there was not a single well-defined peak in HPLC chromatogram.
(§2) Fluorescence polarization (FP) assays were done at 25°C in assay buffer (20 mM NaPO4, 50 mM NaCl, 1 mM EDTA, 0.001% Triton X (v/v), pH 7.8). […] For all FP experiments, the total well volume was 120 µl. […] Anisotropy was measured using a Spectramax M5 plate reader from Molecular Devices.
(§3) Direct binding curves were fit using Pylab/Scipy/Optimize to a single-site binding model utilized previously.
(§4) ^1Best-fit KD values determined by combining all replicate titration curves and fitting to a direct binding model (see Methods). […] Values with an X followed by a number indicate the highest concentration (the number, in nM) for which signal was measured yet no binding was detected.

Bfl-1 = target: T3, Bfl-1 (Homo sapiens, UniProt Q16548); assay: Fluorescence polarization direct binding
T3 construct: myc- Bfl-1 SPOT array & FP; made in house
T3 sequence (Q16548 with tags, fused parts or gaps): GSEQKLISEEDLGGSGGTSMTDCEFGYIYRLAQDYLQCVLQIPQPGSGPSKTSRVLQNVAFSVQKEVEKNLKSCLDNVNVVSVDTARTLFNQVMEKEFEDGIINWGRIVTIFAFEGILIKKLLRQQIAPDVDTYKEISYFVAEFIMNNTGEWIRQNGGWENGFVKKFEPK
Method: as §1, §2, §3, §4

Bcl-xL [4] = target: T2, Bcl-xL; assay: Fluorescence polarization direct binding
Method: as §1, §2, §3, §4

Bcl-w = target: T4, Bcl-w (Homo sapiens, UniProt Q92843, Q133R); assay: Fluorescence polarization direct binding
T4 construct: myc-Bcl-w SPOT array & FP; made in house
T4 sequence (Q92843 with tags, fused parts or gaps Q133R): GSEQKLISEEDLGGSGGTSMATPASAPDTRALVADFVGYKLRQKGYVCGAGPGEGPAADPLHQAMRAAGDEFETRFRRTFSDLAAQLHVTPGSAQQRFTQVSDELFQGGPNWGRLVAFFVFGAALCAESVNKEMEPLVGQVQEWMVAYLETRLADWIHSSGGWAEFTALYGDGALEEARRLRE
Method: as §1, §2, §3, §4

Bcl-2 = target: T5, Bcl-2 (Homo sapiens, UniProt P10415, DEL53-91); assay: Fluorescence polarization direct binding
T5 construct: myc- Bcl-2 FP; made in house
Method: as §1, §2, §3, §4

[5] = Binder class, Mcl-1, benchmark classification of peptides newly characterized in this study
[6] = FP direct binding, 10 nM FAM-labeled peptide, receptor titrated, 25°C, pH 7.8, fit of all replicate titrations, X+number in a cell = highest concentration (nM) measured with no binding detected, given here as >, SPNS1 fit to raw fluorescence
[7] = FP direct binding, 10 nM FAM-labeled peptide, receptor titrated, 25°C, pH 7.8, fit of all replicate titrations, X+number in a cell = highest concentration (nM) measured with no binding detected, given here as >, SPNS1 fit to raw fluorescence, read-out: Best-fit KD, Bfl-1
[8] = benchmark classification of peptides newly characterized in this study, read-out: Binder class, Bfl-1
[9] = FP direct binding, 10 nM FAM-labeled peptide, receptor titrated, 25°C, pH 7.8, fit of all replicate titrations, X+number in a cell = highest concentration (nM) measured with no binding detected, given here as >, SPNS1 fit to raw fluorescence, read-out: Best-fit KD, Bcl-xL
[10] = benchmark classification of peptides newly characterized in this study, read-out: Binder class, Bcl-xL
[11] = FP direct binding, 10 nM FAM-labeled peptide, receptor titrated, 25°C, pH 7.8, fit of all replicate titrations, X+number in a cell = highest concentration (nM) measured with no binding detected, given here as >, SPNS1 fit to raw fluorescence, read-out: Best-fit KD, Bcl-w
[12] = benchmark classification of peptides newly characterized in this study, read-out: Binder class, Bcl-w
[13] = FP direct binding, 10 nM FAM-labeled peptide, receptor titrated, 25°C, pH 7.8, fit of all replicate titrations, X+number in a cell = highest concentration (nM) measured with no binding detected, given here as >, SPNS1 fit to raw fluorescence, read-out: Best-fit KD, Bcl-2
[14] = benchmark classification of peptides newly characterized in this study, read-out: Binder class, Bcl-2

T2 sequence (Q07817 with tags, fused parts or gaps): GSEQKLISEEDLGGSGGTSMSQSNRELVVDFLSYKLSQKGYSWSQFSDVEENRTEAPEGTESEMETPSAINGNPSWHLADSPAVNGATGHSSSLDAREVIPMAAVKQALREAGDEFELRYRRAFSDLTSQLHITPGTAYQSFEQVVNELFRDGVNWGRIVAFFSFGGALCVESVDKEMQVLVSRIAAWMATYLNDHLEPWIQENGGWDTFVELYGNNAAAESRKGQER
T5 sequence (P10415 with tags, fused parts or gaps DEL53-91): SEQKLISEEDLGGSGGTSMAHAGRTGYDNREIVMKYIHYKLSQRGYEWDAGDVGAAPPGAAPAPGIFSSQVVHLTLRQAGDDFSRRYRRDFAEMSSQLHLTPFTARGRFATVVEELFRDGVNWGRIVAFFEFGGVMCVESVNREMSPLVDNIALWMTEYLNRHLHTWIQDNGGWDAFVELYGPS
T1 sequence (Q07820 with tags, fused parts or gaps): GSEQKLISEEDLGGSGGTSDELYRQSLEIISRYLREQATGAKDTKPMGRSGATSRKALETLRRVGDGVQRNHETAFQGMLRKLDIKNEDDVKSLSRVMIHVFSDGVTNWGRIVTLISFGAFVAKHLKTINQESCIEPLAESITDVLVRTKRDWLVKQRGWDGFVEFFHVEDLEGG

## PEIWYAQELGRNGDEYNAYYARR
Mcl-1 [1]
  Kd: > 10000 nM
Bcl-xL [2]
  Binder class (Kd bin): < 1000 nM

## PEIWYAQELRRNGDEYNAYYARR
Mcl-1 [1]
  Kd: > 10000 nM
Bcl-xL [2]
  Binder class (Kd bin): < 1000 nM

## PEIWYAQEVQRIGDEVNAYYARR
Mcl-1 [1]
  Kd: < 1000 nM
Bcl-xL [2]
  Binder class (Kd bin): > 10000 nM

## PEIWYAQELKRFGDENNAYYARR
Mcl-1 [1]
  Kd: > 10000 nM
Bcl-xL [2]
  Binder class (Kd bin): < 1000 nM

## PEIWYAQELKRYGDENNAYYARR
Mcl-1 [1]
  Kd: > 10000 nM
Bcl-xL [2]
  Binder class (Kd bin): < 1000 nM

## PEIWYAQELKRDGDEFNAYYARR
Mcl-1 [1]
  Kd: > 10000 nM
Bcl-xL [2]
  Binder class (Kd bin): < 1000 nM

## PEIWYAQELRRDGDEYNAYYARR
Mcl-1 [1]
  Kd: > 10000 nM
Bcl-xL [2]
  Binder class (Kd bin): < 1000 nM

## PEIWVAQEIGRIGDETNAYYARR
Mcl-1 [1]
  Kd: < 1000 nM
Bcl-xL [2]
  Binder class (Kd bin): > 10000 nM

## RVEQMAIQIKEVGDRVNYIKRSL-NH2 [TRPM7]
Mcl-1 [3]; [5]
  Kd: > 10000 nM
Mcl-1 [3]; [6]
  Kd: 592 nM
Bfl-1; [7]
  Kd: 1900 nM
Bfl-1; [8]
  Kd: 1000 to 10000 nM
Bcl-xL [4]; [9]
  Kd: 679 nM
Bcl-xL [4]; [10]
  Kd: < 1000 nM
Bcl-w; [11]
  Kd: 2490 nM
Bcl-w; [12]
  Kd: < 1000 nM
Bcl-2; [13]
  Kd: 124 nM
Bcl-2; [14]
  Kd: < 1000 nM

## PEIWYAQEIRRAGDEFNAYYARR
Mcl-1 [1]
  Kd: > 10000 nM
Bcl-xL [2]
  Binder class (Kd bin): < 1000 nM

## PEIWYAQEVKRYGDEYNAYYARR
Mcl-1 [1]
  Kd: > 10000 nM
Bcl-xL [2]
  Binder class (Kd bin): < 1000 nM

## IIHKLAMQLRHIGDNIDHRMVRE-NH2 [PXT1]
Mcl-1 [3]; [5]
  Kd: < 1000 nM
Mcl-1 [3]; [6]
  Kd: < 30 nM and 0.9 nM
Bfl-1; [7]
  Kd: < 30 nM and 1 nM
Bfl-1; [8]
  Kd: < 1000 nM
Bcl-xL [4]; [9]
  Kd: < 30 nM and 8 nM
Bcl-xL [4]; [10]
  Kd: < 1000 nM
Bcl-w; [11]
  Kd: < 30 nM and 5 nM
Bcl-w; [12]
  Kd: < 1000 nM
Bcl-2; [13]
  Kd: < 30 nM and 14 nM
Bcl-2; [14]
  Kd: < 1000 nM

## PILENPEILRKTADDFLNRIALT-NH2 [CCH]
Mcl-1 [3]; [5]
  Kd: > 10000 nM
Mcl-1 [3]; [6]
  Kd: > 4000 nM
Bfl-1; [7]
  Kd: > 9610 nM
Bfl-1; [8]
  Kd: > 10000 nM
Bcl-xL [4]; [9]
  Kd: > 5720 nM
Bcl-xL [4]; [10]
  Kd: > 10000 nM
Bcl-w; [11]
  Kd: 1920 nM
Bcl-w; [12]
  Kd: 1000 to 10000 nM
Bcl-2; [13]
  Kd: 7130 nM
Bcl-2; [14]
  Kd: 1000 to 10000 nM

## PEIWVAQEVDRIGDEVNAYYARR
Mcl-1 [1]
  Kd: < 1000 nM
Bcl-xL [2]
  Binder class (Kd bin): > 10000 nM

— PMC4072508, “Genome-Wide Prediction and Validation of Peptides That Bind Human Prosurvival Bcl-2 Proteins” (PLoS Computational Biology, 2014)
